The target in series [1] is human MALT-1 protein (Homo sapiens (Human), UniProt Q9UDY8). The series can be described thus: MALT-1 Biochemical Assay (Quench-FRET enzyme assay). Conditions: human MALT-1 6 nM, substrate 2 μM, 40 min preincubation. Summed up: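 Human MALT-1 (6 nM) preincubated 40 min at room temperature with compound in pH 7.5 HEPES buffer containing 0.8 M sodium citrate and 2 mM DTT. Then 2 μM quenched TAMRA/QSY7 peptide substrate added for 60 min. Cleavage read by fluorescence (Ex 535/Em 590); EC50 is half-maximal inhibition of protease activity.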

Series [2] relates to OCI-LY3 IL6. The series can be described thus: MALT-1 Cell IL-6 AlphaLISA Assay. The class given is cell-based. Conditions: Homo sapiens; OCI-LY3 cells, 48 hours incubation; read-out: OCI-LY3 IL6 48 hour Inhibition EC50. Summed up: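 MALT-1-dependent ABC-DLBCL OCI-LY3 cells were seeded at 50,000 cells/mL onto compound (30 μM to 1.5 nM) and incubated 48 hours at 37° C. Secreted human IL-6 in the medium was measured by AlphaLISA with acceptor beads, biotinylated anti-IL-6 antibody and streptavidin donor beads.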
On the technique in general: In Alpha technology, singlet oxygen from a donor bead excites a nearby acceptor bead.

The test system of series [3] is male Sprague-Dawley rats. The series can be described thus: Cardiovascular Assay in anesthetized rats. It is filed as in vivo. Conditions: rat; for HR (%) / MAP (%) / dP/dt@50 (%): change from vehicle; for Drug (μg/mL SEM): plasma at end of infusion. Here is the method:
The following cardiovascular assay was conducted using male Sprague-Dawley rats that were anesthetized with Inactin (thiobutabarbital), instrumented (catheterized both femoral artery and vein; catheterize left ventricular) and allowed to stabilize. Following a 30-minute baseline period, each compound was infused at low, medium, and high doses/30 minutes. Plasma samples were taken at the end of each dose infusion. If, at any point, the mean arterial pressure (MAP) of an animal decreased below 70 mmHg, the infusion was immediately stopped, a final blood sample was taken, and hemodynamic data for that animal was removed from the group average for all subsequent time points. A 15% change from vehicle for MAP or heart rate (HR), respectively, is considered biologically relevant. A 20% change from vehicle for dP/dt@50 is considered biologically relevant.

The subject of series [4] is CYP 3A4 mRNA. The series can be described thus: CYP3A4 Induction Assay (qPCR, human hepatocytes). The class given is in vitro ADME. As to conditions: 10 μM compound, relative to rifampicin 10 μM. The essentials: (§1)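 Cryopreserved human hepatocytes (60,000 cells/well), overlaid with Geltrex, were dosed at 10 μM final, with omeprazole, rifampicin and probenecid as controls. RNA was isolated on day 3. CYP3A4 mRNA was measured by TaqMan RT-qPCR with GAPDH as the reference gene.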
(Quantitative PCR measures a nucleic acid by following its amplification.)

In series [5] the test system is CYP3A4 mRNA. The series can be described thus: CYP3A4 Induction Assay (qPCR, human hepatocytes). Conditions: cryopreserved human hepatocytes (plated), 10 μM compound, mRNA fold over vehicle (0.1% DMSO). The class given is in vitro ADME. The essentials:
as §1

Chain of human MALT-1 protein (Q9UDY8 whole entry): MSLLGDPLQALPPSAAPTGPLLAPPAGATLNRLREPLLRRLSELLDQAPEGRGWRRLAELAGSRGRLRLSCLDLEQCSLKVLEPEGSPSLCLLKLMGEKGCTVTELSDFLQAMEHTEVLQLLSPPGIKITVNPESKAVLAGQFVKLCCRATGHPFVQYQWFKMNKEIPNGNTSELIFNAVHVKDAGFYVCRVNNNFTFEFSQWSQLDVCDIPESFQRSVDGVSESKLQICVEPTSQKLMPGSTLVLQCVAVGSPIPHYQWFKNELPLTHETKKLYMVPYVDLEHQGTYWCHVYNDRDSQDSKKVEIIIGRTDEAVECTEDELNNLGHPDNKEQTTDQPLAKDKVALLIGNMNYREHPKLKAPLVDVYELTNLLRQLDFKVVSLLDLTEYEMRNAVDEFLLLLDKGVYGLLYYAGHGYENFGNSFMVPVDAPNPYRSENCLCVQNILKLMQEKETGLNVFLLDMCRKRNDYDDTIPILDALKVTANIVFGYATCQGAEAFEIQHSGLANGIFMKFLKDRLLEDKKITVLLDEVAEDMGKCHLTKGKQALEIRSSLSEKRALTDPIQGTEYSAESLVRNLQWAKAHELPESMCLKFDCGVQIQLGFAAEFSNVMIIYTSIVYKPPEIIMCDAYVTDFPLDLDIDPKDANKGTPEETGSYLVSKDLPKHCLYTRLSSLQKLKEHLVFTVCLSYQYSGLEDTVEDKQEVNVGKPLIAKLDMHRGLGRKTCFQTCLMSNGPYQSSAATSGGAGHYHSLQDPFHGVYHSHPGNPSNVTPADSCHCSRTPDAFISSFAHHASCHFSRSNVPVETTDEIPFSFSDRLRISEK

Usually EC50 stands for the midpoint of the concentration-response curve. For orientation: fold induction means the ratio of treated to control signal. Regarding `CO[C@@H](C)c1c(Nc2ccc([C@H](N(C)C(=O)C3CCS(=O)(=O)CC3)C(F)(F)F)cc2)cnc2sc(C)nc12` [Example 1, N-methyl-1,1-dioxo-N-{(1S)-2,2,2-trifluoro-1-[4-({7-[(1S)-1-methoxyethyl]-2-methyl[1,3]thiazolo[5,4-b]pyridin-6-yl}amino)phenyl]ethyl}-1λ^6-thiane-4-carboxamide], a half-maximal effect in series [1] (EC50) was put at 91 nM. Further, the 50% effective concentration (EC50) in series [2] turned out to be 200 nM. In addition, in series [3] (dose 3 mg/kg), the “HR (%)” value is given as −4%, the “MAP (%)” value was −5%, the “dP/dt@50 (%)” value was determined as 5% and the “Drug (μg/mL SEM)” value turned out to be 2.32 ± 0.12 µg/mL. For the same compound, in series [3] (dose 10 mg/kg), the “HR (%)” value is reported as −8%, the “MAP (%)” value was −8%, the “dP/dt@50 (%)” value was 12% and the “Drug (μg/mL SEM)” value was 9.36 ± 0.41 µg/mL. In series [3] (dose 30 mg/kg), the “HR (%)” value is given as −17%, the “MAP (%)” value is on record as −16%, the “dP/dt@50 (%)” value is 11% and the “Drug (μg/mL SEM)” value was 24.00 ± 1.63 µg/mL. The “CYP3A4 % of positive control (%)” value in series [4] is recorded as “(5.46) %”. Besides, the fold induction at 1 day, 10 µM in series [5] was determined as 1.45.
Turning to `CO[C@H](c1c(Nc2ccc([C@H](N(C)C(=O)C3CCS(=O)(=O)CC3)C(F)(F)F)cc2)cnc2sc(C)nc12)C(F)F` [Example 3, N-{(1S)-1-[4-({7-[(1R)-2,2-difluoro-l-methoxyethyl]-2-methyl[1,3]thiazolo[5,4-b]pyridin-6-yl}amino)phenyl]-2,2,2-trifluoroethyl} -N-methyl-1,1-dioxo-1λ^6-thiane-4-carboxamide], the EC50 in series [1] was 110 nM. For the same compound, in series [2], the EC50 came out at 140 nM. Moreover, in series [3] (dose 3 mg/kg), the “HR (%)” value is −1%, the “MAP (%)” value is reported as 1%, the “dP/dt@50 (%)” value is given as 0% and the “Drug (μg/mL SEM)” value came to 2.18 ± 0.10 µg/mL. Moreover, in series [3] (dose 10 mg/kg), the “HR (%)” value is given as −3%, the “MAP (%)” value came out at 0%, the “dP/dt@50 (%)” value came to 3% and the “Drug (μg/mL SEM)” value stood at 8.34 ± 0.55 µg/mL. Further, in series [3] (dose 30 mg/kg), the “HR (%)” value is −12%, the “MAP (%)” value is listed as −13%, the “dP/dt@50 (%)” value is reported as −3% and the “Drug (μg/mL SEM)” value was 22.87 ± 2.67 µg/mL. In series [4], the “CYP3A4 % of positive control (%)” value is reported as “(1.75) %”. Besides, the fold induction at 1 day, 10 µM in series [5] was 1.12.
For `CO[C@@H](C)c1c(Nc2ccc([C@H](N(C)C(=O)C3CCN(C(C)=O)CC3)C(F)(F)F)cc2)cnc2sc(C)nc12` [Example 19, 1-acetyl-N-methyl-N-{(1S)-2,2,2-trifluoro-1-[4-({7-[(1S)-1-methoxyethyl]-2-methyl[1,3]thiazolo [5,4-b]pyridin-6-yl}amino)phenyl]ethyl}piperidine-4-carboxamide], in series [1], it took 198 nM to reach a half-maximal effect (EC50). Moreover, the 50% effective concentration (EC50) in series [2] worked out at 950 nM. In series [3] (dose 3 mg/kg), the “HR (%)” value is on record as −5%, the “MAP (%)” value was 0%, the “dP/dt@50 (%)” value is reported as −5% and the “Drug (μg/mL SEM)” value turned out to be 2.51 ± 0.29 µg/mL. Moreover, in series [3] (dose 10 mg/kg), the “HR (%)” value is −5%, the “MAP (%)” value is given as −1%, the “dP/dt@50 (%)” value is given as −5% and the “Drug (μg/mL SEM)” value came to 8.92 ± 0.73 µg/mL. For the same compound, in series [3] (dose 30 mg/kg), the “HR (%)” value is on record as −9%, the “MAP (%)” value is −2%, the “dP/dt@50 (%)” value was −3% and the “Drug (μg/mL SEM)” value came to 25.13 ± 0.98 µg/mL. Besides, the “CYP3A4 % of positive control (%)” value in series [4] is reported as “(−0.162) %”. The fold induction at 1 day, 10 µM in series [5] is 0.985.
In series [1], `CO[C@@H](c1c(Nc2ccc([C@H](N(C)C(=O)C3CCN(C(C)=O)CC3)C(F)(F)F)cc2)cnc2sc(C)nc12)C(F)F` [Example 33, 1-acetyl-N-{(1S)-1-[4-({7-[(1S)-2,2-difluoro-1-methoxyethyl]-2-methyl[1,3]thiazolo [5,4-b]pyridin-6-yl}amino)phenyl]-2,2,2-trifluoroethyl}-N-methylpiperidine-4-carboxamide] returned a 50% effective concentration (EC50) of 162 nM. In addition, the EC50 in series [2] worked out at 180 nM. Also, in series [3] (dose 3 mg/kg), the “HR (%)” value is reported as −5%, the “MAP (%)” value is −5%, the “dP/dt@50 (%)” value came to 1% and the “Drug (μg/mL SEM)” value is 2.52 ± 0.39 µg/mL. Moreover, in series [3] (dose 10 mg/kg), the “HR (%)” value is −7%, the “MAP (%)” value is given as −5%, the “dP/dt@50 (%)” value is 1% and the “Drug (μg/mL SEM)” value came to 11.20 ± 0.60 µg/mL. In series [3] (dose 30 mg/kg), the “HR (%)” value is recorded as −8%, the “MAP (%)” value was −9%, the “dP/dt@50 (%)” value is given as 7% and the “Drug (μg/mL SEM)” value came to 34.10 ± 1.95 µg/mL. In addition, the “CYP3A4 % of positive control (%)” value in series [4] is recorded as “(20.2) %”. The fold induction at 1 day, 10 µM in series [5] amounted to 2.72.
For the compound `CO[C@H](C)c1c(Nc2ccc([C@H](N(C)C(=O)C3CCN(C(C)=O)CC3)C(F)(F)F)cc2)cnc2sc(C)nc12` [Example 35, 1-acetyl-N-methyl-N-{(1S)-2,2,2-trifluoro-1-[4-({7-[(1R)-1-methoxyethyl]-2-methyl[1,3]thiazolo [5,4-b]pyridin-6-yl}amino)phenyl]ethyl}piperidine-4-carboxamide], the half-maximal effective concentration (EC50) came to 500 nM in series [1] and 7300 nM in series [2]. In series [4], the “CYP3A4 % of positive control (%)” value is on record as “(17) %”. Further, the fold induction at 1 day, 10 µM in series [5] came out at 2.45.
Taken in the same sequence, the figures for `CO[C@H](c1c(Nc2ccc([C@@H](C(F)F)N(C)C(=O)C3CCN(C(=O)CO)CC3)cc2)cnc2sc(C)nc12)C(F)(F)F` [Example 36, N-{(1S)-2,2-difluoro-1-[4-({2-methyl-7-[(1R)-2,2,2-trifluoro-1-methoxyethyl][1,3]thiazolo [5,4-b]pyridin-6-yl}amino)phenyl]ethyl}-1-(hydroxyacetyl)-N-methylpiperidine-4-carboxamide] were 48 nM, 270 nM, “(14.4) %” and 1.9.
Taken in the same sequence, the figures for `CO[C@H](c1c(Nc2ccc([C@@H](C(F)F)N(C)C(=O)C3CCN(C(C)=O)CC3)cc2)cnc2sc(C)nc12)C(F)(F)F` [Example 37, 1-acetyl-N-{(1S)-2,2-difluoro-1-[4-({2-methyl-7-[(1R)-2,2,2-trifluoro-1-methoxyethyl][1,3]thiazolo[5,4-b]pyridin-6-yl}amino)phenyl]ethyl}-N-methylpiperidine-4-carboxamide] were 60 nM, 210 nM, “(19) %” and 2.19.

These data come from patent US20230312601A1, “THIAZOLO[5,4-B]PYRIDINE MALT-1 INHIBITORS” (AbbVie Inc., priority 2022, published 2023).
